# From patent publication US8293682B2, “Growth regulators for gramineous weeds” (Rikengreen Co., Ltd., priority 2008, dated 2012)
# What was measured:
# [1] = test system: annual bluegrass (Poa annua L.); assay: Test Example 1: number of ear emergence, poly-cup, single or mixed application; format: in vivo
# Protocol: At the initial stage of the ear emergence of annual bluegrass (Poa annua L.) grown in a poly-cup of 11 cm×11 cm, benzyladenine (Beanine for painting; made by Rikengreen; containing 1% benzyladenine) and ethephon (Ethrel 10 soluble concentrate; Nissan Chemical Industries; containing 10% ethephon) respectively as a single active ingredient or a mixture of them were diluted in a predetermined amount of water and applied by atomization so as to be a dose as indicated in Table. The application was carried out using 100 mL/m^2 of the solution to which a spreader (Riken Sprayzer (registered trade mark); made by Rikengreen) was added so as to be 1/1,000 fold. Inspection was made on Days 21, 32 and 45 after treatment with the agents to count the number of ear emergence in the cup. After completion of each inspection, clipping was performed.
# [2] = test system: annual bluegrass (Poa annua L.); assay: Test Example 2: count of ear emergence, poly-cup, applications at intervals / alternate application; format: in vivo
# Protocol: At the initial stage of the ear emergence of annual bluegrass (Poa annua L.) grown in a poly-cup of 11 cm×11 cm, benzyladenine (Beanine for painting; made by Rikengreen; containing 1% benzyladenine) and/or ethephon (Ethrel 10 soluble concentrate; Nissan Chemical Industries; containing 10% ethephon) were diluted in a predetermined amount of water, and a spreader (Riken Sprayzer (registered trade mark); made by Rikengreen) was added so as to be 1/1,000-fold concentration; the respectively diluted solutions were applied by atomization at a dose and intervals as indicated in Table (scattered solution: 200 mL/m^2), and the number of emerged ears of annual bluegrass (Poa annua L.) in the cup was counted through time. The test was carried out serially. […] The symbol “●” in Table indicates the treatment with benzyladenine, “◯” the treatment with ethephon, and “−” untreated. Dose means the amount at a single application.
# [3] = test system: annual bluegrass (Poa annua L.); assay: Test Example 3: number of emerged ears and leaves, poly-cup, two applications; format: in vivo; conditions: for Ear (number of emerged ears in the cup) / [Leaf] (number of leaves within 6 cm×6 cm): 2nd application after 29 days
# Protocol: At the initial stage of the ear emergence of annual bluegrass (Poa annua L.) grown in a poly-cup of 11 cm×11 cm, benzyladenine (Beanine for painting; made by Rikengreen; containing 1% benzyladenine) and ethephon (Ethrel 10 soluble concentrate; Nissan Chemical Industries; containing 10% ethephon) were diluted in a predetermined amount of water, and a spreader (Riken Sprayzer (registered trade mark); made by Rikengreen) was added so as to be 1/1,000-fold concentration; the respectively diluted solutions were applied by atomization at a dose as indicated in Table (scattered solution: 200 mL/m^2), and after a lapse of 29 days, the 2nd application was carried out. Then, the number of emerged ears of annual bluegrass (Poa annua L.) in the cup was counted. Further, the number of leaves [Leaf] of annual bluegrass (Poa annua L.) was counted within the area of 6 cm×6 cm in the cup. The test was carried out serially. […] Dose means the amount at a single application.
# [4] = test system: annual bluegrass (Poa annua L.); assay: Test Example 4: field test in bent green turf, emerged ear number; format: in vivo; conditions: applied Day 0 and after 30 days
# Protocol: In a bent green turf where annual bluegrasses (Poa annua L.) were grown, a test zone of 1 m×1 m was provided. Benzyladenine (Beanine for painting; made by Rikengreen; containing 1% benzyladenine) and ethephon (Ethrel 10 soluble concentrate; Nissan Chemical Industries; containing 10% ethephon) were diluted in a predetermined amount of water, and a spreader (Riken Sprayzer (registered trade mark); made by Rikengreen) was added so as to be 1/1,000-fold concentration. The respectively diluted solutions were applied to each test zone at the first application (Day 0) at a dose as indicated in Table, and after a lapse of 30 days the second application was carried out. The amount of solution scattered was 100 mL/m^2 both in the first and second applications. The number of ear emergence of annual bluegrass (Poa annua L.) within the area of 10×10 cm was counted at regular intervals at 3 spots per zone. […] Dose means the amount at a single application.
# lawn grasses = conditions: cited from earlier work
# [5] = Day 46, Benzyladenine + Ethephon 2 + 0 mg a.i./m^2
# [6] = Day 46, Benzyladenine + Ethephon 4 + 0 mg a.i./m^2
structure (smiles),measurement,setting,value
"c1ccc(CNc2ncnc3nc[nH]c23)cc1 [Benzyladenine, 6-benzylaminopurine]",number of ear emergence in the cup,"[1]; 21 Days after Application, Benzyladenine 2, Ethephon 0 mg a.i./m^2",39
same,number of ear emergence in the cup,"[1]; 21 Days after Application, Benzyladenine 4, Ethephon 0 mg a.i./m^2",26
same,number of ear emergence in the cup,"[1]; 21 Days after Application, Benzyladenine 8, Ethephon 0 mg a.i./m^2",36
same,number of ear emergence in the cup,"[1]; 21 Days after Application, Benzyladenine 12, Ethephon 0 mg a.i./m^2",16
same,number of ear emergence in the cup,"[1]; 21 Days after Application, Benzyladenine 16, Ethephon 0 mg a.i./m^2",11
same,number of ear emergence in the cup,"[1]; 32 Days after Application, Benzyladenine 2, Ethephon 0 mg a.i./m^2",50
same,number of ear emergence in the cup,"[1]; 32 Days after Application, Benzyladenine 4, Ethephon 0 mg a.i./m^2",34
same,number of ear emergence in the cup,"[1]; 32 Days after Application, Benzyladenine 8, Ethephon 0 mg a.i./m^2",10
same,number of ear emergence in the cup,"[1]; 32 Days after Application, Benzyladenine 12, Ethephon 0 mg a.i./m^2",9
same,number of ear emergence in the cup,"[1]; 32 Days after Application, Benzyladenine 16, Ethephon 0 mg a.i./m^2",6
same,number of ear emergence in the cup,"[1]; 45 Days after Application, Benzyladenine 2, Ethephon 0 mg a.i./m^2",71
same,number of ear emergence in the cup,"[1]; 45 Days after Application, Benzyladenine 4, Ethephon 0 mg a.i./m^2",71
same,number of ear emergence in the cup,"[1]; 45 Days after Application, Benzyladenine 8, Ethephon 0 mg a.i./m^2",67
same,number of ear emergence in the cup,"[1]; 45 Days after Application, Benzyladenine 12, Ethephon 0 mg a.i./m^2",55
same,number of ear emergence in the cup,"[1]; 45 Days after Application, Benzyladenine 16, Ethephon 0 mg a.i./m^2",45
same,inhibition of ear emergence (summary in words),"[1]; Test Example 1, Tables 1-3",effective in inhibiting the ear emergence
same,Count of ear emergence,"[2]; Day 25, Benzyladenine 0.67 mg a.i./m^2 applied Day 0, 6, 12",37
same,Count of ear emergence,"[2]; Day 25, Benzyladenine 0.67 mg a.i./m^2 applied Day 6, 12",34
same,Count of ear emergence,"[2]; Day 25, Benzyladenine 0.67 mg a.i./m^2 applied Day 12",37
same,Count of ear emergence,"[2]; Day 25, Benzyladenine 2 mg a.i./m^2 applied Day 0, 6, 12",20
same,Count of ear emergence,"[2]; Day 25, Benzyladenine 2 mg a.i./m^2 applied Day 6, 12",14
same,Count of ear emergence,"[2]; Day 25, Benzyladenine 2 mg a.i./m^2 applied Day 12",22
same,Count of ear emergence,"[2]; Day 33, Benzyladenine 0.67 mg a.i./m^2 applied Day 0, 6, 12",50
same,Count of ear emergence,"[2]; Day 33, Benzyladenine 0.67 mg a.i./m^2 applied Day 6, 12",24
same,Count of ear emergence,"[2]; Day 33, Benzyladenine 0.67 mg a.i./m^2 applied Day 12",28
same,Count of ear emergence,"[2]; Day 33, Benzyladenine 2 mg a.i./m^2 applied Day 0, 6, 12",26
same,Count of ear emergence,"[2]; Day 33, Benzyladenine 2 mg a.i./m^2 applied Day 6, 12",15
same,Count of ear emergence,"[2]; Day 33, Benzyladenine 2 mg a.i./m^2 applied Day 12",23
same,Ear (number of emerged ears in the cup),"[3]; Day 23, Benzyladenine + Ethephon 2 + 0 mg a.i./m^2",12
same,Ear (number of emerged ears in the cup),"[3]; Day 23, Benzyladenine + Ethephon 4 + 0 mg a.i./m^2",2
same,Ear (number of emerged ears in the cup),[3]; [5],54
same,[Leaf] (number of leaves within 6 cm×6 cm),[3]; [5],[105]
same,Ear (number of emerged ears in the cup),[3]; [6],55
same,[Leaf] (number of leaves within 6 cm×6 cm),[3]; [6],[108]
same,Ear (number of emerged ears in the cup),"[3]; Day 53, Benzyladenine + Ethephon 2 + 0 mg a.i./m^2",43
same,Ear (number of emerged ears in the cup),"[3]; Day 53, Benzyladenine + Ethephon 4 + 0 mg a.i./m^2",48
same,inhibition of ear emergence (summary in words),[3]; Test Example 3,strongly inhibits the ear emergence
same,number of leaves (bud number) (summary in words),[3]; Test Example 3,increases the number of leaves
same,Ear (mean emerged ear number within 10×10 cm),"[4]; Day 22, Ethephon 0, Benzyladenine 4 mg a.i./m^2",62.3
same,Ear (mean emerged ear number within 10×10 cm),"[4]; Day 22, Ethephon 0, Benzyladenine 8 mg a.i./m^2",34.3
same,Ear (mean emerged ear number within 10×10 cm),"[4]; Day 22, Ethephon 0, Benzyladenine 12 mg a.i./m^2",27.0
same,Ear (mean emerged ear number within 10×10 cm),"[4]; Day 41, Ethephon 0, Benzyladenine 4 mg a.i./m^2",150.3
same,Ear (mean emerged ear number within 10×10 cm),"[4]; Day 41, Ethephon 0, Benzyladenine 8 mg a.i./m^2",59.7
same,Ear (mean emerged ear number within 10×10 cm),"[4]; Day 41, Ethephon 0, Benzyladenine 12 mg a.i./m^2",32.7
same,Ear (mean emerged ear number within 10×10 cm),"[4]; Day 61, Ethephon 0, Benzyladenine 4 mg a.i./m^2",107.0
same,Ear (mean emerged ear number within 10×10 cm),"[4]; Day 61, Ethephon 0, Benzyladenine 8 mg a.i./m^2",53.0
same,Ear (mean emerged ear number within 10×10 cm),"[4]; Day 61, Ethephon 0, Benzyladenine 12 mg a.i./m^2",41.0
same,rooting of lawn grasses,lawn grasses; Non-patent document 1,effect for accelerating the rooting of lawn grasses
same,growth of lawn grasses,lawn grasses; Patent document 1,effect for accelerating the growth of lawn grasses
